What was measured:
ADAM10 = target: T1, ADAM10 (Homo sapiens, UniProt O14672); settings: cited from earlier work
T1 sequence (O14672 214-748): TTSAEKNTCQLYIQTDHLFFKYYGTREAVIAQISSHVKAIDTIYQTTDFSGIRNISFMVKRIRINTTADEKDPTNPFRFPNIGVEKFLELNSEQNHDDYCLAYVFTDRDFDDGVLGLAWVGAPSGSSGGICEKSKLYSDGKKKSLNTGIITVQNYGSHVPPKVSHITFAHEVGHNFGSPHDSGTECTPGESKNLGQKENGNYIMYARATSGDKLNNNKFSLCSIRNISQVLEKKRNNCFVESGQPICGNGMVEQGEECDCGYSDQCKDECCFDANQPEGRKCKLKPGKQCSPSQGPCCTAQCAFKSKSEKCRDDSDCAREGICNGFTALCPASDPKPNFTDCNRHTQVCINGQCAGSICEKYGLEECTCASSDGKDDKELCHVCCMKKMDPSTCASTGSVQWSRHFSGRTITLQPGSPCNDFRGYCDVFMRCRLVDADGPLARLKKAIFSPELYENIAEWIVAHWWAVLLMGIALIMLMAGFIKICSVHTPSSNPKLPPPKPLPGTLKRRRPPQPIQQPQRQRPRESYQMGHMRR

BT474 cells = test: Cell viability test (SRB) and colony formation assay in BT474 cells; assay type: cell-based, human; settings: MEL-18-depleted BT474 cells; 1 μM GW280264 with trastuzumab, 5 days
Method: An in vitro toxicity test analysis kit (Sulforhodamine B based, TOX6) was purchased from Sigma-Aldrich (St. Louis, Mo., USA), and used according to the manufacturer's protocols. […] After five days, the cells were fixed by layering a TCA solution in the medium, and incubated at 4° C. for 1 hour. The fixed cells were washed with water several times, and stained with a 0.4% sulforhodamine B solution for 30 minutes. Subsequently, the stained cells were washed with a 1% acetic acid solution until remaining salts were no longer observed, and the incorporated dye was dissolved in a 10 mM Tris solution while gently stirring. The prepared plate was detected using a microplate reader at 490 nm.
After 2 weeks, the cells were fixed with a 4% formaldehyde solution for 5 minutes, washed with PBS, and stained with 0.02% crystal violet (C0775, Sigma-Aldrich) for 1 to 2 hours at room temperature and then washed again. The prepared plates were dried thoroughly, and the experiment was carried out.

ErbB-PI3K-AKT signaling = test: Immunoblotting / ELISA of ErbB signaling and ErbB ligand secretion in BT474 cells; assay type: cell-based, human; settings: MEL-18-knockdown BT474 cells; 1 μM GW280264, 24 hours
Method: Cells were lysed in RIPA buffer, and the lysates were subjected to immunoblotting and immunoprecipitation as described in [M. H. Cho et al, Nat Commun 6, 7821(2015)] (60). For immunoblotting, the cell lysates were separated by 6% to 15% SDS-polyacrylamide gel electrophoresis (PAGE) and transferred to nitrocellulose membranes. After blocking the membranes with 5% skin milk, the membranes were incubated with primary antibodies overnight at 4° C., and then reacted with horseradish peroxidase (HRP)-conjugated secondary antibodies for 1 hour at room temperature. Bands were visualized using an ECL detection system (GE Healthcare, Chalfont St. Giles, UK).
The levels of the HER ligands HB-EGF and heregulinl (heregulinl, NRG1-beta1, NRG1) were measured in cell culture supernatants using ELISA (BosterBio and R&D Systems) according to the manufacturer's protocols.
In the case of the R&D Systems kit, an ELISA plate was coated overnight with captured antibodies and blocked with 3% BSA for 1 hour. […]
In the case of the BosterBio ELISA kit, the antibody-coated plate was directly filled with samples and standards, and incubated for 90 minutes. […] After this step, the plates for both kits were filled with a substrate solution for 20 minutes, the reaction was stopped using a stop solution for 20 minutes, and the absorbance was measured using a microplate reader at a wavelength of 450 nm. […]

ADAM10 and ADAM17 = settings: HER2+ metastatic breast cancer patients expressing p95-HER2; trial reported to have failed; cited from earlier work

## CNC(=O)[C@@H](NC(=O)[C@H](CCCc1ccccc1)[C@H](C)N(O)C=O)C(C)(C)C [GI254023, (2R)—N-[(1S)-2,2-dimethyl-1-[(methylamino)carbonyl]-propyl]-2-[(1S)-1-[formyl(hydroxy)amino]ethyl]-5-phenylpentanamide]
ADAM10
  selectivity to ADAM10 with respect to ADAM17: about 100 fold

## CCC[C@@H]([C@@H](CC(C)C)C(=O)N[C@@H](CCCCNC(=O)OCc1ccccc1)C(=O)Nc1nccs1)N(O)C=O [GW280264, benzyl N-[(5S)-5-[[(2R,3S)-3-(Formylhydroxyamino)-2-(2-methylpropyl)-1-oxohexyl]amino]-6-oxo-6-(2-thiazolylamino)hexyl]-carbamate]
BT474 cells
  anti-proliferative effect of trastuzumab on co-treatment with GW280264: resistance to trastuzumab is improved
ErbB-PI3K-AKT signaling
  activation of ErbB-PI3K-AKT signaling and secretion of ErbB ligands: reversing the activation of ErbB-PI3K-AKT signaling

## COC(=O)N1CC2(CC2)C[C@H](C(=O)NO)[C@H]1C(=O)N1CCN(c2ccccc2)CC1 [INCB7839, (6S,7S)-7-[(hydroxyamino)carbonyl]-6-[(4-phenyl-1-piperazinyl)carbonyl]-5-azaspiro[2.5]octane-5-carboxylic acid methyl ester]
ADAM10 and ADAM17
  clinical therapeutic effect in combination with Herceptin: improves a clinical therapeutic effect of Herceptin

From patent US11674182B2, “Biomarker for HER2-positive cancer and anti-HER2 therapy and applications thereof” (INDUSTRY-UNIVERSITY COOPERATION FOUNDATION HANYANG …, priority 2017, dated 2023)
